Data: US20230085307A1, “PYRIDAZINONE COMPOUND AND HERBICIDE” (NISSAN CHEMICAL CORPORATION, priority 2019, published 2023)

What was measured:
[1] = tested on: barnyard grass; test: Test Example 5: herbicidal effect by foliage application, plastic box (Table 20, symbol H); type: in vivo, barnyard grass (Echinochloa crus-galli)
How it was run: (§1)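 Plants sown in sterilized diluvial soil and grown 14 days in a greenhouse at 25° C to 30° C, then sprayed on the foliage with the compound's emulsion diluted in water to a predetermined herbicide amount. Injury to weeds and crops scored three weeks after application on a visual rating scale.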

[2] = tested on: velvetleaf; test: Test Example 5: herbicidal effect by foliage application, plastic box (Table 20, symbol M); type: in vivo, velvetleaf (Abutilon theophrasti)
How it was run: as §1

[3] = tested on: redroot pigweed; test: Test Example 4: herbicidal effect by soil treatment (Table 19, symbol N); type: in vivo, redroot pigweed (Amaranthus retroflexus); details: amount of applied herbicide 320 g/ha
How it was run: (§2)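 Seeds were sown in sterilized diluvial soil and covered with about 1.5 cm of soil. An emulsion formulation diluted with water to a predetermined herbicide amount was sprayed evenly onto the soil surface. Plants grew in a greenhouse at 25° C. to 30° C., and the effect was scored three weeks after application using criteria from an earlier test.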

[4] = tested on: redroot pigweed; test: Test Example 5: herbicidal effect by foliage application, plastic box (Table 20, symbol N); type: in vivo, redroot pigweed (Amaranthus retroflexus)
How it was run: as §1

[5] = tested on: wild oat; test: Test Example 5: herbicidal effect by foliage application, plastic box (Table 20, symbol I); type: in vivo, wild oat (Avena fatua)
How it was run: as §1

[6] = tested on: barnyard grass; test: Test Example 3: herbicidal effect by foliage application, Wagner pot (Table 18, symbol H); type: in vivo, barnyard grass (Echinochloa crus-galli); details: 320 g/ha
How it was run: (§3)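 Plants were sown in alluvial soil held under 0.1–0.5 cm standing water and grown 14 days in a greenhouse at 25–30 °C. An emulsifiable formulation, water-diluted to the set dose, was then sprayed onto the foliage, and effects were scored three weeks later using previously defined criteria.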

[7] = tested on: windgrass; test: Test Example 5: herbicidal effect by foliage application, plastic box (Table 20, symbol L); type: in vivo, windgrass (Apera spica-venti)
How it was run: as §1

[8] = tested on: blackgrass; test: Test Example 5: herbicidal effect by foliage application, plastic box (Table 20, symbol J); type: in vivo, blackgrass (Alopecurus myosuroides)
How it was run: as §1

[9] = tested on: wild oat; test: Test Example 4: herbicidal effect by soil treatment (Table 19, symbol I); type: in vivo, wild oat (Avena fatua); details: amount of applied herbicide 320 g/ha
How it was run: as §2

[10] = tested on: southern crabgrass; test: Test Example 5: herbicidal effect by foliage application, plastic box (Table 20, symbol F); type: in vivo, southern crabgrass (Digitaria ciliaris)
How it was run: as §1

[11] = tested on: Chinese sprangletop; test: Test Example 3: herbicidal effect by foliage application, Wagner pot (Table 18, symbol D); type: in vivo, chinese sprangletop (Leptochloa chinensis); details: 320 g/ha
How it was run: as §3

[12] = tested on: chickweed; test: Test Example 4: herbicidal effect by soil treatment (Table 19, symbol P); type: in vivo, common chickweed (Stellaria media); details: amount of applied herbicide 320 g/ha
How it was run: as §2

[13] = tested on: Italian ryegrass; test: Test Example 5: herbicidal effect by foliage application, plastic box (Table 20, symbol K); type: in vivo, Italian ryegrass (Lolium multiflorum)
How it was run: as §1

[14] = tested on: windgrass; test: Test Example 4: herbicidal effect by soil treatment (Table 19, symbol L); type: in vivo, windgrass (Apera spica-venti); details: amount of applied herbicide 320 g/ha
How it was run: as §2

[15] = tested on: lambsquarters; test: Test Example 5: herbicidal effect by foliage application, plastic box (Table 20, symbol O); type: in vivo, lambsquarters (Chenopodium album)
How it was run: as §1

[16] = tested on: Italian ryegrass; test: Test Example 4: herbicidal effect by soil treatment (Table 19, symbol K); type: in vivo, Italian ryegrass (Lolium multiflorum); details: amount of applied herbicide 320 g/ha
How it was run: as §2

[17] = tested on: green foxtail; test: Test Example 4: herbicidal effect by soil treatment (Table 19, symbol G); type: in vivo, green foxtail (Setaria viridis); details: amount of applied herbicide 320 g/ha
How it was run: as §2

[18] = tested on: green foxtail; test: Test Example 5: herbicidal effect by foliage application, plastic box (Table 20, symbol G); type: in vivo, green foxtail (Setaria viridis)
How it was run: as §1

[19] = tested on: persian speedwell; test: Test Example 4: herbicidal effect by soil treatment (Table 19, symbol R); type: in vivo, Persian speedwell (Veronica persica); details: amount of applied herbicide 320 g/ha
How it was run: as §2

[20] = tested on: blackgrass; test: Test Example 4: herbicidal effect by soil treatment (Table 19, symbol J); type: in vivo, blackgrass (Alopecurus myosuroides); details: amount of applied herbicide 320 g/ha
How it was run: as §2

[21] = tested on: rice flat sedge; test: Test Example 3: herbicidal effect by foliage application, Wagner pot (Table 18, symbol E); type: in vivo, rice flat sedge (Cyperus iria); details: 320 g/ha
How it was run: as §3

[22] = tested on: chickweed; test: Test Example 5: herbicidal effect by foliage application, plastic box (Table 20, symbol P); type: in vivo, common chickweed (Stellaria media)
How it was run: as §1

[23] = tested on: velvetleaf; test: Test Example 4: herbicidal effect by soil treatment (Table 19, symbol M); type: in vivo, velvetleaf (Abutilon theophrasti); details: amount of applied herbicide 320 g/ha
How it was run: as §2

[24] = tested on: persian speedwell; test: Test Example 5: herbicidal effect by foliage application, plastic box (Table 20, symbol R); type: in vivo, Persian speedwell (Veronica persica)
How it was run: as §1

[25] = tested on: southern crabgrass; test: Test Example 4: herbicidal effect by soil treatment (Table 19, symbol F); type: in vivo, southern crabgrass (Digitaria ciliaris); details: amount of applied herbicide 320 g/ha
How it was run: as §2

[26] = tested on: lambsquarters; test: Test Example 4: herbicidal effect by soil treatment (Table 19, symbol O); type: in vivo, lambsquarters (Chenopodium album); details: amount of applied herbicide 320 g/ha
How it was run: as §2

[27] = tested on: barnyard grass; test: Test Example 4: herbicidal effect by soil treatment (Table 19, symbol H); type: in vivo, barnyard grass (Echinochloa crus-galli); details: amount of applied herbicide 320 g/ha
How it was run: as §2

[28] = foliage application, 320 g/ha, three weeks after application
[29] = amount of applied herbicide 320 g/ha, foliage application after 14-day growth, evaluated three weeks after application

## CCOc1ccc(-c2sc3ccccc3c2-c2c(O)c(C)nn(C)c2=O)cn1 [1-076]
[1]; [28]
  herbicidal effect grade, H: barnyard grass: 0 (Herbicidal rate of 5% or less (almost no effect))
[2]; [28]
  herbicidal effect grade, M: velvetleaf: 3 (Herbicidal rate of 40% or more and less than 70%)
[3]
  herbicidal effect rating, N: redroot pigweed: 0 (Herbicidal rate of 5% or less (almost no effect))
[4]; [28]
  herbicidal effect grade, N: redroot pigweed: 2 (Herbicidal rate of 20% or more and less than 40%)
[5]; [28]
  herbicidal effect grade, I: wild oat: 0 (Herbicidal rate of 5% or less (almost no effect))
[6]
  herbicidal effect on H (barnyard grass), rating 0-5: 1 (Herbicidal rate of 5% or more and less than 20%)
[7]; [28]
  herbicidal effect grade, L: windgrass: 0 (Herbicidal rate of 5% or less (almost no effect))
[8]; [28]
  herbicidal effect grade, J: blackgrass: 0 (Herbicidal rate of 5% or less (almost no effect))
[9]
  herbicidal effect rating, I: wild oat: 0 (Herbicidal rate of 5% or less (almost no effect))
[10]; [28]
  herbicidal effect grade, F: southern crabgrass: 0 (Herbicidal rate of 5% or less (almost no effect))
[11]
  herbicidal effect on D (Chinese sprangletop), rating 0-5: 0 (Herbicidal rate of 5% or less (almost no effect))
[12]
  herbicidal effect rating, P: chickweed: 5 (Herbicidal rate of 90% or more (almost completely withered))
[13]; [28]
  herbicidal effect grade, K: Italian ryegrass: 1 (Herbicidal rate of 5% or more and less than 20%)
[14]
  herbicidal effect rating, L: windgrass: 0 (Herbicidal rate of 5% or less (almost no effect))
[15]; [28]
  herbicidal effect grade, O: lambsquarters: 1 (Herbicidal rate of 5% or more and less than 20%)
[16]
  herbicidal effect rating, K: Italian ryegrass: 0 (Herbicidal rate of 5% or less (almost no effect))
[17]
  herbicidal effect rating, G: green foxtail: 1 (Herbicidal rate of 5% or more and less than 20%)
[18]; [28]
  herbicidal effect grade, G: green foxtail: 0 (Herbicidal rate of 5% or less (almost no effect))
[19]
  herbicidal effect rating, R: persian speedwell: 5 (Herbicidal rate of 90% or more (almost completely withered))
[20]
  herbicidal effect rating, J: blackgrass: 0 (Herbicidal rate of 5% or less (almost no effect))
[21]
  herbicidal effect on E (rice flat sedge), rating 0-5: 5 (Herbicidal rate of 90% or more (almost completely withered))
[22]; [28]
  herbicidal effect grade, P: chickweed: 5 (Herbicidal rate of 90% or more (almost completely withered))
[23]
  herbicidal effect rating, M: velvetleaf: 0 (Herbicidal rate of 5% or less (almost no effect))
[24]; [28]
  herbicidal effect grade, R: persian speedwell: 5 (Herbicidal rate of 90% or more (almost completely withered))
[25]
  herbicidal effect rating, F: southern crabgrass: 0 (Herbicidal rate of 5% or less (almost no effect))
[26]
  herbicidal effect rating, O: lambsquarters: 0 (Herbicidal rate of 5% or less (almost no effect))
[27]
  herbicidal effect rating, H: barnyard grass: 0 (Herbicidal rate of 5% or less (almost no effect))

## Cc1nn(C)c(=O)c(-c2c(-c3ccc(C(F)(F)F)cc3)sc3cc(F)c(F)cc23)c1O [5-007]
[1]; [29]
  Herbicidal effect by foliage application, H: barnyard grass: 3 (Herbicidal rate of 40% or more and less than 70%)
[2]; [29]
  Herbicidal effect by foliage application, M: velvetleaf: 3 (Herbicidal rate of 40% or more and less than 70%)
[3]
  N: redroot pigweed, herbicidal effect grade: 3 (Herbicidal rate of 40% or more and less than 70%)
[4]; [29]
  Herbicidal effect by foliage application, N: redroot pigweed: 5 (Herbicidal rate of 90% or more (almost completely withered))
[5]; [29]
  Herbicidal effect by foliage application, I: wild oat: 2 (Herbicidal rate of 20% or more and less than 40%)
[6]
  herbicidal effect on barnyard grass (H): 4 (Herbicidal rate of 70% or more and less than 90%)
[7]; [29]
  Herbicidal effect by foliage application, L: windgrass: 4 (Herbicidal rate of 70% or more and less than 90%)
[8]; [29]
  Herbicidal effect by foliage application, J: blackgrass: 0 (Herbicidal rate of 5% or less (almost no effect))
[9]
  I: wild oat, herbicidal effect grade: 0 (Herbicidal rate of 5% or less (almost no effect))
[10]; [29]
  Herbicidal effect by foliage application, F: southern crabgrass: 5 (Herbicidal rate of 90% or more (almost completely withered))
[11]
  herbicidal effect on Chinese sprangletop (D): 1 (Herbicidal rate of 5% or more and less than 20%)
[12]
  P: chickweed, herbicidal effect grade: 3 (Herbicidal rate of 40% or more and less than 70%)
[13]; [29]
  Herbicidal effect by foliage application, K: Italian ryegrass: 0 (Herbicidal rate of 5% or less (almost no effect))
[14]
  L: windgrass, herbicidal effect grade: 0 (Herbicidal rate of 5% or less (almost no effect))
[15]; [29]
  Herbicidal effect by foliage application, O: lambsquarters: 5 (Herbicidal rate of 90% or more (almost completely withered))
[16]
  K: Italian ryegrass, herbicidal effect grade: 0 (Herbicidal rate of 5% or less (almost no effect))
[17]
  G: green foxtail, herbicidal effect grade: 3 (Herbicidal rate of 40% or more and less than 70%)
[18]; [29]
  Herbicidal effect by foliage application, G: green foxtail: 4 (Herbicidal rate of 70% or more and less than 90%)
[19]
  R: persian speedwell, herbicidal effect grade: 3 (Herbicidal rate of 40% or more and less than 70%)
[20]
  J: blackgrass, herbicidal effect grade: 0 (Herbicidal rate of 5% or less (almost no effect))
[21]
  herbicidal effect on rice flat sedge (E): 2 (Herbicidal rate of 20% or more and less than 40%)
[22]; [29]
  Herbicidal effect by foliage application, P: chickweed: 5 (Herbicidal rate of 90% or more (almost completely withered))
[23]
  M: velvetleaf, herbicidal effect grade: 0 (Herbicidal rate of 5% or less (almost no effect))
[24]; [29]
  Herbicidal effect by foliage application, R: persian speedwell: 5 (Herbicidal rate of 90% or more (almost completely withered))
[25]
  F: southern crabgrass, herbicidal effect grade: 0 (Herbicidal rate of 5% or less (almost no effect))
[26]
  O: lambsquarters, herbicidal effect grade: 1 (Herbicidal rate of 5% or more and less than 20%)
[27]
  H: barnyard grass, herbicidal effect grade: 0 (Herbicidal rate of 5% or less (almost no effect))
